Measured values published in the supplement of paper PMC10627819.
In brackets after ≈: the same amount, converted by molar mass.

Tests used:
[1] = test system: S. pneumoniae D39V
[2] = test system: S. aureus DSM 20231
[3] = test system: S. aureus Newman
[4] = test system: B. subtilis 168
[5] = test system: S. aureus DSM 20231; assay: fitness (endpoint OD595 vs no drug) (fraction); higher = more growth
Outline: (§1)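 Fitness was measured as bacterial growth in 384-well plates inoculated at OD595 0.01 (30 µl, or 55 µl for S. pneumoniae). Media were TSB, LB Lennox or CY, at 37 °C. OD595 was read every 30 min for 14 h and background-subtracted against the first reading. Fitness is OD595 at the transition into stationary phase divided by the robust mean of no-drug control wells, capped at 1.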

[6] = test system: S. aureus Newman; assay: as above
Outline: as §1

[7] = test system: B. subtilis 168; assay: as above
Outline: as §1

[8] = test system: S. pneumoniae D39V; assay: as above
Outline: as §1

[9] = test system: S. pneumoniae D39V; assay: Bliss interaction score (quartile over a dose matrix) (fitness difference); higher = more antagonism (negative = synergy)
Outline: (§2)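 Each OD595 reading at entry into stationary phase was scaled to the robust mean of the untreated wells on its plate, with a ceiling of 1. These ratios define fitness, and single-drug fitness was inferred from combinations. The Bliss score compares observed fitness with the product-based expectation and is reported as quartiles across all replicate types, technical, biological and donor/recipient.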

[10] = test system: S. aureus DSM 20231; assay: as above
Outline: as §2

[11] = test system: S. aureus Newman; assay: as above
Outline: as §2

[12] = test system: B. subtilis 168; assay: as above
Outline: as §2
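Throughout, for Bliss interaction score (quartile over a dose matrix): first quartile when negative (synergy) and third quartile when positive (antagonism).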

CC[C@H](C)[C@H](N)C1=N[C@H](C(=O)N[C@@H](CC(C)C)C(=O)N[C@H](CCC(=O)O)C(=O)N[C@H](C(=O)N[C@H]2CCCCNC(=O)[C@H](CC(N)=O)NC(=O)[C@@H](CC(=O)O)NC(=O)[C@H](Cc3cnc[nH]3)NC(=O)[C@@H](Cc3ccccc3)NC(=O)[C@H]([C@@H](C)CC)NC(=O)[C@@H](CCCN)NC2=O)[C@@H](C)CC)CS1 [Bacitracin]
main component drawn
Settings	MIC [µg/mL]
[1]	1.17 (≈ 0.824 µM)
[2]	80 (≈ 56.2 µM)
[3]	75 (≈ 52.7 µM)
[4]	300 (≈ 211 µM)

fitness, main component drawn
Settings	18.75 µg/mL	37.5 µg/mL	75 µg/mL	150 µg/mL
[5]	0.628	0.0499	0.0064	–
[6]	0.683	0.275	0	–
[7]	–	0.936	0.912	0.802

CC[C@H]1OC(=O)[C@H](C)[C@@H](O[C@H]2C[C@@](C)(OC)[C@@H](O)[C@H](C)O2)[C@H](C)[C@@H](O[C@@H]2O[C@H](C)C[C@H](N(C)C)[C@H]2O)[C@](C)(O)C[C@@H](C)C(=O)[C@H](C)[C@@H](O)[C@]1(C)O [Erythromycin]
Settings	MIC [µg/mL]
[1]	0.123 (≈ 0.168 µM)
[2]	0.5 (≈ 0.681 µM)
[3]	0.5 (≈ 0.681 µM)

fitness
Settings	0.0312 µg/mL	0.0625 µg/mL	0.125 µg/mL	0.25 µg/mL	0.5 µg/mL
[6]	0.964	0.889	0.594	0.111	0.0101
[7]	0.926	0.704	0.0499	0.0212	–

CC(=O)NC[C@H]1CN(c2ccc(N3CCOCC3)c(F)c2)C(=O)O1 [Linezolid]
Settings	MIC [µg/mL]
[4]	0.5 (≈ 1.48 µM)

fitness
Settings	0.125 µg/mL	0.2 µg/mL	0.25 µg/mL	0.4 µg/mL	0.5 µg/mL	0.8 µg/mL
[5]	0.923	–	0.648	–	0.16	–
[7]	0.722	–	0.239	–	0.0555	–
[8]	–	0.665	–	0.412	–	0.227

CC(=O)NC[C@H]1CN(c2ccc(N3CCOCC3)c(F)c2)C(=O)O1 [Linezolid] + COc1ccc(C[C@H](N)C(=O)N[C@H]2[C@@H](O)[C@H](n3cnc4c(N(C)C)ncnc43)O[C@@H]2CO)cc1 [Puromycin]
fitness
Settings	first compound 0.105 µg/mL	first compound 0.125 µg/mL	first compound 0.21 µg/mL	first compound 0.25 µg/mL	first compound 0.42 µg/mL	first compound 0.5 µg/mL
[5], partner 0.39 µg/mL	–	0.91	–	0.595	–	0.193
[5], partner 0.78 µg/mL	–	0.849	–	0.591	–	0.209
[5], partner 1.56 µg/mL	–	0.944	–	0.578	–	0.152
[7], partner 0.39 µg/mL	–	0.55	–	0.0916	–	0.0287
[7], partner 0.78 µg/mL	–	0.569	–	0.118	–	0.0397
[7], partner 1.56 µg/mL	–	0.599	–	0.128	–	0.0443
[8], partner 1 µg/mL	0.833	–	0.746	–	0.606	–
[8], partner 2 µg/mL	0.788	–	0.685	–	0.323	–
[8], partner 4 µg/mL	0.644	–	0.446	–	0.233	–

one replicate
Settings	fitness
[5], first compound 0.125 µg/mL, partner 3.12 µg/mL	0.824
[5], first compound 0.125 µg/mL, partner 6.24 µg/mL	0.287
[5], first compound 0.25 µg/mL, partner 3.12 µg/mL	0.344
[5], first compound 0.25 µg/mL, partner 6.24 µg/mL	0.118
[5], first compound 0.5 µg/mL, partner 3.12 µg/mL	0.0742
[5], first compound 0.5 µg/mL, partner 6.24 µg/mL	0.0788
[5], first compound 1 µg/mL, partner 0.39 µg/mL	0.0293
[5], first compound 1 µg/mL, partner 0.78 µg/mL	0.0469
[5], first compound 1 µg/mL, partner 1.56 µg/mL	0.0437
[7], first compound 0.0625 µg/mL, partner 0.39 µg/mL	0.885
[7], first compound 0.0625 µg/mL, partner 0.78 µg/mL	0.885
[7], first compound 0.0625 µg/mL, partner 1.56 µg/mL	0.904
[8], first compound 0.2 µg/mL, partner 1 µg/mL	0.712
[8], first compound 0.2 µg/mL, partner 2 µg/mL	0.742
[8], first compound 0.2 µg/mL, partner 4 µg/mL	0.608
[8], first compound 0.4 µg/mL, partner 1 µg/mL	0.564
[8], first compound 0.4 µg/mL, partner 2 µg/mL	0.599
[8], first compound 0.4 µg/mL, partner 4 µg/mL	0.404
[8], first compound 0.8 µg/mL, partner 1 µg/mL	0.181
[8], first compound 0.8 µg/mL, partner 2 µg/mL	0.215
[8], first compound 0.8 µg/mL, partner 4 µg/mL	0.15

Settings	Bliss interaction score
[9]	-0.132
[10]	-0.0587
[11]	-0.0605
[12]	0.075

CC(=O)NC[C@H]1CN(c2ccc(N3CCOCC3)c(F)c2)C(=O)O1 [Linezolid] + C[n+]1ccc(-c2cc[n+](C)cc2)cc1 [Paraquat]
fitness
Settings	first compound 0.105 µg/mL	first compound 0.125 µg/mL	first compound 0.21 µg/mL	first compound 0.25 µg/mL	first compound 0.42 µg/mL	first compound 0.5 µg/mL
[5], partner 1.25 µg/mL	–	0.812	–	0.6	–	0.234
[5], partner 2.5 µg/mL	–	0.768	–	0.63	–	0.295
[5], partner 5 µg/mL	–	0.845	–	0.654	–	0.323
[7], partner 1.25 µg/mL	–	0.562	–	0.068	–	0.0393
[7], partner 2.5 µg/mL	–	0.521	–	0.0848	–	0.0301
[7], partner 5 µg/mL	–	0.531	–	0.101	–	0.0453
[8], partner 1.5 µg/mL	0.876	–	0.76	–	0.598	–
[8], partner 3 µg/mL	0.836	–	0.743	–	0.565	–
[8], partner 6 µg/mL	0.826	–	0.711	–	0.565	–

fitness, one replicate
Settings	partner 1.25 µg/mL	partner 1.5 µg/mL	partner 2.5 µg/mL	partner 3 µg/mL	partner 5 µg/mL	partner 6 µg/mL
[5], first compound 1 µg/mL	0.0626	–	0.0623	–	0.0727	–
[7], first compound 0.0625 µg/mL	0.876	–	0.876	–	0.749	–
[8], first compound 0.2 µg/mL	–	0.883	–	0.921	–	0.93
[8], first compound 0.4 µg/mL	–	0.822	–	0.853	–	0.874
[8], first compound 0.8 µg/mL	–	0.621	–	0.626	–	0.727

Settings	Bliss interaction score
[9]	0.109
[10]	0.0716
[11]	-0.0403
[12]	0.0297
